Among the data in ChEMBL document CHEMBL1149414, “Vitamin D receptor: ligand recognition and allosteric network” (J Med Chem, 2006) are IC50 values, retold here.

The target of assay [1] is T1, Vitamin D3 receptor (Homo sapiens, UniProt P11473).
T1 sequence (P11473 whole entry): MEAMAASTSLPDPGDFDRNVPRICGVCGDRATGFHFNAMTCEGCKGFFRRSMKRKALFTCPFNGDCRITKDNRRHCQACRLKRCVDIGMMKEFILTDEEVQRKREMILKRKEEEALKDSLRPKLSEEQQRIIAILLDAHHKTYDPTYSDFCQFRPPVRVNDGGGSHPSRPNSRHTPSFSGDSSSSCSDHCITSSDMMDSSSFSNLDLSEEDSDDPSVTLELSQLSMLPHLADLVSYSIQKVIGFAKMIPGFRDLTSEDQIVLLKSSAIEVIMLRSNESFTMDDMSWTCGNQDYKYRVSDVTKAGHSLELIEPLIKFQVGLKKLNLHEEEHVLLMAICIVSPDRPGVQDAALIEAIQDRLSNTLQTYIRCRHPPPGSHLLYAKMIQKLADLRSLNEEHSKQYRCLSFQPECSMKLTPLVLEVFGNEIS
Kind of assay: Inhibition of transactivation of human VDR in COS7 cells. It counts as functional, cell-based, COS-7.

Assay [2] deals with T1, Vitamin D3 receptor. Kind of assay: Antagonistic activity against human VDR in presence of 1,25(OH)2D3. It counts as functional.

Turning to `C=C1C[C@H](C[C@@H](C)[C@H]2CC[C@H]3/C(=C/C=C4C[C@@H](O)C(=C)[C@H](O)C4)CCC[C@]23C)OC1=O`, in assay [1], the half-maximal inhibitory concentration (IC50) is 300 nM. On to `C[C@H](/C=C/C[C@H](O)C12CC3CC(CC(C3)C1)C2)[C@H]1CC[C@H]2/C(=C/C=C3C[C@@H](O)C[C@H](O)C3)CCC[C@]12C`, for which the IC50 is 400 nM in assay [1] and 50 nM in assay [2].

Broadly, the IC50 is the concentration at which inhibition is half-maximal.
